The melting point is the temperature of the solid-liquid transition.

Counter-ions that a name gives are not always drawn.

On to `CCCCC1(O)C2CCC1CC(N1CCN(C(=O)CC3=C(C(=O)OC)C(c4c(Cl)cccc4Cl)C(C(=O)OC)=C(CCc4nccs4)N3)CC1)C2` (stereo not drawn) (as salt: hydrochloride) [Example 6, Dimethyl 4-(2,6-dichlorophenyl)-2-[2-[4-(8-butyl-8-hydroxybicyclo[3.2.1]oct-3-yl)-1-piperazinyl]-2-oxoethyl]-6-[2-(1,3-thiazol-2-yl)ethyl]-1,4-dihydro-3,5-pyridinedicarboxylate], for which the melting point was 174 to 177 °C (dec.).
With `COC(=O)C1=C(CCc2nccs2)NC(CC(=O)N2CCN(C3CC4CCC(C3)C4(O)C(C)C)CC2)=C(C(=O)OC)C1c1c(Cl)cccc1Cl` (stereo not drawn) (as salt: hydrochloride) [Example 7, Dimethyl 4-(2,6-dichlorophenyl)-2-[2-[4-(8-hydroxy-8-isopropylbicyclo[3.2.1]oct-3-yl)-1-piperazinyl]-2-oxoethyl]-6-[2-(1,3-thiazol-2-yl)ethyl]-1,4-dihydro-3,5-pyridinedicarboxylate], the melting point is 178 to 180 °C (dec.).
For the molecule `COC(=O)C1=C(CCc2nccs2)NC(CC(=O)N2CCN(C3CC4CC(=O)CC4C3)CC2)=C(C(=O)OC)C1c1c(Cl)cccc1Cl` (stereo not drawn) (as salt: hydrochloride) [Example 10, Dimethyl 4-(2,6-dichlorophenyl)-2-[2-oxo-2-[4-(5-oxooctahydro-2-pentalenyl)-1-piperazinyl]ethyl]-6-(2-(1,3-thiazol-2-yl)ethyl)-1,4-dihydro-3,5-pyridinedicarboxylate], the melting point is 214 to 220 °C (dec.).

The values above are taken from patent US20030176445A1, “Substituted 1,4-dihydropyridine compounds as bradykinin antagonists” (Pfizer Inc., priority 1999, published 2003).
